# Source: patent US9273055B2, “Tyrosine kinase inhibitors” (Chembridge Corporation, priority 2008, dated 2016)
# Values joined by “and” are separate entries in the source; they are usually repeats but may differ in a detail not shown here. Equal values may be shown once. Read-outs that look alike come from different tables or passages of the source.
# Legend:
# [1] = Rat pharmacokinetics / bioavailability; format: in vivo; conditions: for AUC(0-t): male, Sprague-Dawley, plasma, read-out: AUC0-1440 (converted)
# [2] = in vitro; conditions: rat, pH 7.4
# [3] = target: T1, FLT3-ITD (Homo sapiens, UniProt P36888, cells depend on it, form not given); assay: BaF3 stable clone growth (WST-1), FLT3-ITD; conditions: read-out: BaF3 Stables IC50 ± SEE, FLT3-ITD
# T1 sequence (P36888 with tags, fused parts or gaps INS600HVDFREYEYD): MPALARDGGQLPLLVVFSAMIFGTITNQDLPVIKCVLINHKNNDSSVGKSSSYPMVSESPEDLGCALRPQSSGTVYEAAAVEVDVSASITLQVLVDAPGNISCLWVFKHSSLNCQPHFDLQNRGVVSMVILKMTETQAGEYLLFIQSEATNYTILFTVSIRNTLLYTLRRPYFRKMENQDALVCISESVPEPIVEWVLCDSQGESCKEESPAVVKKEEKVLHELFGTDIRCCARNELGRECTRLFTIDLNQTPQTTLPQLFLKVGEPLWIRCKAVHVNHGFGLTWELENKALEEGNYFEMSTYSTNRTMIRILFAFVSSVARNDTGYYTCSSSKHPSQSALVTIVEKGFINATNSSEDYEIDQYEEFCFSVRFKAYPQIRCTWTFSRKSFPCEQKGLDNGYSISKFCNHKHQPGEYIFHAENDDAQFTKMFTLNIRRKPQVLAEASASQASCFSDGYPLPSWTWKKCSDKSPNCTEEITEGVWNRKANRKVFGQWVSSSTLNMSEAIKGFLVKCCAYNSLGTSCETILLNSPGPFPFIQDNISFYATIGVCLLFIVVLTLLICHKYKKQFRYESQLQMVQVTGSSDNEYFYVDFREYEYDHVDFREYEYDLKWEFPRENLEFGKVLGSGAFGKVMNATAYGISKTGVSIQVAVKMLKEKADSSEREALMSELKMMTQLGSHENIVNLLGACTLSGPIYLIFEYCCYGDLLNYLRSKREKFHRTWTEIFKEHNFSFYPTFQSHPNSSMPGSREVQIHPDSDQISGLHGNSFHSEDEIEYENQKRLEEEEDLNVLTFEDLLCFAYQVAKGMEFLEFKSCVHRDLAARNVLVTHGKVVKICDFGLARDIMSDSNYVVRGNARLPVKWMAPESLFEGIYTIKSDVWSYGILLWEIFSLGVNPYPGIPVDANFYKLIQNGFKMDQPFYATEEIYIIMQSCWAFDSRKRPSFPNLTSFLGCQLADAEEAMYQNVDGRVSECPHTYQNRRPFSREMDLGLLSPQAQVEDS
# [4] = target: NPM-ALK C1156Y (Homo sapiens, UniProt Q9UM73, C1156Y); assay: BaF3 stable clone growth (WST-1), NPM-ALK C1156Y; conditions: BaF3 stables
# Sequence of NPM-ALK C1156Y (Q9UM73 1060-1620 C1156Y limits assumed): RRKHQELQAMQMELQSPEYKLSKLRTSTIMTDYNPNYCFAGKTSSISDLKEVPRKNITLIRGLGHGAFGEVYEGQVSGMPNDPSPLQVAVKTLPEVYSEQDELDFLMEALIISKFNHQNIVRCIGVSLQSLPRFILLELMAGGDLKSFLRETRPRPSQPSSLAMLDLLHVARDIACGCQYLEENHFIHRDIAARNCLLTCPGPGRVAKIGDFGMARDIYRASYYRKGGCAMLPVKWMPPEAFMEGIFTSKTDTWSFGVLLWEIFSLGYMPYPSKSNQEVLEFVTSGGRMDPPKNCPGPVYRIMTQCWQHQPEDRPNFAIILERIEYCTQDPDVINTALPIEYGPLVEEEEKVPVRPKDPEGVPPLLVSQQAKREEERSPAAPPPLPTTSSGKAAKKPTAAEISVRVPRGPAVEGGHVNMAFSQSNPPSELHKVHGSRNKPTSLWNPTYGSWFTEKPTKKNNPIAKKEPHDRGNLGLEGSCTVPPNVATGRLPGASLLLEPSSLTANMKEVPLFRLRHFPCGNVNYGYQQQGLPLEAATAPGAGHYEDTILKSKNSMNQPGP
# [5] = target: NPM-ALK R1275Q (Homo sapiens, UniProt Q9UM73, R1275Q); assay: BaF3 stable clone growth (WST-1), NPM-ALK R1275Q; conditions: read-out: BaF3 Stables IC50 ± SEE, R1275Q; NPM-ALK construct
# Sequence of NPM-ALK R1275Q (Q9UM73 1060-1620 R1275Q limits assumed): as the sequence (Q9UM73 1060-1620 C1156Y limits assumed) above, with Y97C, R216Q counted along it
# [6] = target: EML4-ALK C1156Y (Homo sapiens, UniProt Q9UM73, C1156Y); assay: BaF3 stable clone growth (WST-1), EML4-ALK C1156Y; conditions: BaF3 stables
# Sequence of EML4-ALK C1156Y (Q9UM73 1060-1620 C1156Y limits assumed): as the sequence (Q9UM73 1060-1620 C1156Y limits assumed) above
# [7] = Phase I microsome metabolic stability, mouse; format: in vitro ADME; conditions: 1.0 mg/ml microsomes
# [8] = system: Caco-2 monolayers; assay: Caco-2 cell permeation study; format: in vitro ADME; conditions: for Papp A to B: apical pH 6.5, 2 h
# [9] = target: T2, cMET (Homo sapiens, UniProt P08581); assay: In vitro kinase activity assay (LANCE TR-FRET), cMET; format: biochemical
# T2 construct: purchased Invitrogen
# T2 sequence (P08581 25-1390): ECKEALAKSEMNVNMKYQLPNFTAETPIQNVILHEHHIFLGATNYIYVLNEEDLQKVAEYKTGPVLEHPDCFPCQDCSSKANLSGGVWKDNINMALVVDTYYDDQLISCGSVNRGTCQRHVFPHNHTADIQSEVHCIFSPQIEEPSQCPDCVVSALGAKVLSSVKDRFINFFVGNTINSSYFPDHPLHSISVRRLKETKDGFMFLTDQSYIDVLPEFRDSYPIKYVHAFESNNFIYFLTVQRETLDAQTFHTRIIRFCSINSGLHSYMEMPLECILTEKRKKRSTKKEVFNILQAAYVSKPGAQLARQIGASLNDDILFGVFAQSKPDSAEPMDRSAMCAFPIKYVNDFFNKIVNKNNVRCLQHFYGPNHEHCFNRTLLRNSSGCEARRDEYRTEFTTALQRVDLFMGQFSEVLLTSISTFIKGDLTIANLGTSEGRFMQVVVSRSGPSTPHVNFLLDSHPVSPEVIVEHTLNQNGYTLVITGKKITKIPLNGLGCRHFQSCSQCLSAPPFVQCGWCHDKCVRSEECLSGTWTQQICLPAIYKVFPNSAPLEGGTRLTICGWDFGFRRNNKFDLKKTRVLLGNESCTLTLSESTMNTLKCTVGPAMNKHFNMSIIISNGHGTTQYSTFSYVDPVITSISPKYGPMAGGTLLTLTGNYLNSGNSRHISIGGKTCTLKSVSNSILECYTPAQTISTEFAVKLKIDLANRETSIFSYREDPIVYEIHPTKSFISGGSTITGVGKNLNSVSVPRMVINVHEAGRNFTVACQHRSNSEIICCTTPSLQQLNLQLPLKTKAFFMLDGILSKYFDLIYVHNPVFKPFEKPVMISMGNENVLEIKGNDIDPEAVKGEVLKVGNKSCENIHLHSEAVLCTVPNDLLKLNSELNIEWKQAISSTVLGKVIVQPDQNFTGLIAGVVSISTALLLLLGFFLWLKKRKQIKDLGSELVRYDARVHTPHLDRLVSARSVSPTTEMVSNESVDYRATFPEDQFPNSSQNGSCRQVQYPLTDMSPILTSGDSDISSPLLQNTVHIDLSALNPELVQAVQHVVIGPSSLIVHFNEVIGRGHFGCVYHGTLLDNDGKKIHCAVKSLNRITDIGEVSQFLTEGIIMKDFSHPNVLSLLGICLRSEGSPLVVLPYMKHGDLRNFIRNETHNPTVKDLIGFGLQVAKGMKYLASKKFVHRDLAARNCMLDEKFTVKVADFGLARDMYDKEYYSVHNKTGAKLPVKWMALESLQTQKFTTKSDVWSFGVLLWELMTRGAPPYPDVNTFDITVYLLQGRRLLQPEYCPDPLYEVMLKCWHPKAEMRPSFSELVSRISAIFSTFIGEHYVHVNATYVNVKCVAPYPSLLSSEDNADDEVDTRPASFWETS
# [10] = system: K299 lymphoma cells; assay: 3 day cell viability (WST-1), K299; format: cell-based; conditions: Homo sapiens, 72 h, 3 days
# [11] = Caco-2 cell permeation study; format: in vitro ADME; conditions: human; for Papp A→B at 2 h, 10 μM / Papp B→A at 2 h, 10 μM: Caco-2, 10 μM; for Papp A→B at 2 h, 10 μM: apical pH 6.5, 2 h; for Papp B→A at 2 h, 10 μM: basolateral pH 7.4, 2 h
# [12] = system: NB-1 neuroblastoma cells; assay: 3 day cell viability (WST-1), NB-1; format: cell-based; conditions: 72 h, 3 days
# [13] = Phase I microsome metabolic stability, rat; conditions: pH 7.4
# [14] = Phase I microsome metabolic stability, human; conditions: pH 7.4
# [15] = target: hERG potassium channel current expressed in HEK293 cells (Homo sapiens, UniProt Q12809); assay: hERG automatic patch clamp (PatchXpress 7000A)
# Sequence of hERG potassium channel current expressed in HEK293 cells (Q12809 whole entry): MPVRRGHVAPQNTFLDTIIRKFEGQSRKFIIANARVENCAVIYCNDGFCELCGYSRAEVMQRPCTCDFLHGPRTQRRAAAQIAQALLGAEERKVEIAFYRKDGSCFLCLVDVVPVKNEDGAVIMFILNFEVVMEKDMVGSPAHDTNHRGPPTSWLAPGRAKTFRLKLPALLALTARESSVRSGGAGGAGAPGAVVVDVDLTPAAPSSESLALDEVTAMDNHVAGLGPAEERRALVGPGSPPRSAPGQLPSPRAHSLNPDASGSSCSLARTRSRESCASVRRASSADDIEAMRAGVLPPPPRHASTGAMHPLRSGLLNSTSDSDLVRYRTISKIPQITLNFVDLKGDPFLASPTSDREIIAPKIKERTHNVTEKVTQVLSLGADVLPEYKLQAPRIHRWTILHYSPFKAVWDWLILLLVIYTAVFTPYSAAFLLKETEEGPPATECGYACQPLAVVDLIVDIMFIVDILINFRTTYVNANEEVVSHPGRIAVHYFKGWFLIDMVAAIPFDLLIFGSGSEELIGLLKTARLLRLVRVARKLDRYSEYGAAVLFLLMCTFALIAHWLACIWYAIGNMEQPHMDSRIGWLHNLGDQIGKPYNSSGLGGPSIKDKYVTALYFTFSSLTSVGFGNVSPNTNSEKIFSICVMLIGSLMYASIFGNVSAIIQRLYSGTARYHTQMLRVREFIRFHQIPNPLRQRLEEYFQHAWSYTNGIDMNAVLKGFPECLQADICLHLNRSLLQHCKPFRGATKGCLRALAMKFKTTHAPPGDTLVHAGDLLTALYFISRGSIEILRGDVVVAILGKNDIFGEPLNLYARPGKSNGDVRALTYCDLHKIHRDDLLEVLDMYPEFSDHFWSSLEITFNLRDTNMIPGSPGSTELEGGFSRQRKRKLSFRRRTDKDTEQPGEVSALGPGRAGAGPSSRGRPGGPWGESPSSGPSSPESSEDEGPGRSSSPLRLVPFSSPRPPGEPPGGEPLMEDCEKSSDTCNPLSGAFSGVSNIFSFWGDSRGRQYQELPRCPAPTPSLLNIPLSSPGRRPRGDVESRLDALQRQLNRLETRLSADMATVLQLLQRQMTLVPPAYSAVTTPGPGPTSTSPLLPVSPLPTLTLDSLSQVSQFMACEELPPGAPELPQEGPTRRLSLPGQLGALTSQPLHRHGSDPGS
# [16] = target: EML4-ALK R1275Q (Homo sapiens, UniProt Q9UM73, R1275Q); assay: BaF3 stable clone growth (WST-1), EML4-ALK R1275Q; conditions: read-out: BaF3 Stables IC50 ± SEE, R1275Q; EML4-ALK construct
# Sequence of EML4-ALK R1275Q (Q9UM73 1060-1620 R1275Q limits assumed): as the sequence (Q9UM73 1060-1620 C1156Y limits assumed) above, with Y97C, R216Q counted along it
# [17] = target: T3, ALK (Homo sapiens, UniProt Q9UM73); assay: In vitro kinase activity assay (LANCE TR-FRET), ALK; format: biochemical
# T3 construct: purchased Invitrogen
# T3 sequence (Q9UM73 19-1620): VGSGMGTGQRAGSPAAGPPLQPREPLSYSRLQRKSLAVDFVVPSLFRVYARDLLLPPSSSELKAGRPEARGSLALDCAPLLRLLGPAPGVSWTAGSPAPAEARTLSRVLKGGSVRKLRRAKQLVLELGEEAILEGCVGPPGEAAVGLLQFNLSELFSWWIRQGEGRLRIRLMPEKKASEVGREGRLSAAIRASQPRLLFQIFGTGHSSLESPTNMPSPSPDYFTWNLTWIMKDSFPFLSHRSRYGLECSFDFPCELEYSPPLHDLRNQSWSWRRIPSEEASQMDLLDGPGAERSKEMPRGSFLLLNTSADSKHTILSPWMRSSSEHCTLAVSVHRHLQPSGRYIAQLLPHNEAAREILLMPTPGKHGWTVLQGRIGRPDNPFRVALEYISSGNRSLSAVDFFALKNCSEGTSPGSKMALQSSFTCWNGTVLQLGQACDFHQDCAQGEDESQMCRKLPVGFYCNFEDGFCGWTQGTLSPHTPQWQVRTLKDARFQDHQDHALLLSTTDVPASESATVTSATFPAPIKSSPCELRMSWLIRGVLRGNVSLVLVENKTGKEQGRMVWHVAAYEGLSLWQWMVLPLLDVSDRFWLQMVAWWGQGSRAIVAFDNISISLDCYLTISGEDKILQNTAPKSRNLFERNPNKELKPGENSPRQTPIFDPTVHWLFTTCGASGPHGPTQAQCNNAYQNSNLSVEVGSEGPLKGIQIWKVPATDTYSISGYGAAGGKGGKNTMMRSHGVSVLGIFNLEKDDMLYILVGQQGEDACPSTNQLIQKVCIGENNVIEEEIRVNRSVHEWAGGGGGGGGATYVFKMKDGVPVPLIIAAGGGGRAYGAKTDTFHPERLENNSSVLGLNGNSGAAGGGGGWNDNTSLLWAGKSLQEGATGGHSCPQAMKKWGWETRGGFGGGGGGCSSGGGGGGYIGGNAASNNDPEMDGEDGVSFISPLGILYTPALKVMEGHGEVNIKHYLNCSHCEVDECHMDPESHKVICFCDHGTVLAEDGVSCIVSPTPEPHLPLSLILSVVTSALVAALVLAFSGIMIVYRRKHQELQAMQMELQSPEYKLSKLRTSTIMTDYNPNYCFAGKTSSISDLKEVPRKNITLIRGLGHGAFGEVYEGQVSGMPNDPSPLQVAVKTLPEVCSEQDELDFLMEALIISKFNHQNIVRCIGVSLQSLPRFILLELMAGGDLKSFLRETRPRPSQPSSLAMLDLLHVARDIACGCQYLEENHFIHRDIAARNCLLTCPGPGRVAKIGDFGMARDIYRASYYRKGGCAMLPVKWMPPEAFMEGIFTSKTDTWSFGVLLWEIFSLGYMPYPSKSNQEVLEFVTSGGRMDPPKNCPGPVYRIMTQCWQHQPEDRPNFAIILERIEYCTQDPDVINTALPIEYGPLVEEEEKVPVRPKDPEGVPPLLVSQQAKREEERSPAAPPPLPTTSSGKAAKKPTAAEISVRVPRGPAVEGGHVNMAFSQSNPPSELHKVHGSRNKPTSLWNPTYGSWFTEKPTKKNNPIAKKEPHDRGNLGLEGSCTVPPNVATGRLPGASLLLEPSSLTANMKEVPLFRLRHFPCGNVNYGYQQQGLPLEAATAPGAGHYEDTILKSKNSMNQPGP
# [18] = target: T4, TrkA (Homo sapiens, UniProt P04629); assay: In vitro kinase activity assay (LANCE TR-FRET), TrkA; format: biochemical
# T4 construct: purchased Invitrogen
# [19] = system: U937 lymphoma cells; assay: 3 day cell viability (WST-1), U937; format: cell-based; conditions: 3 days
# [20] = Guinea pig pharmacokinetics; format: in vivo; conditions: 10 mg/kg PO
# [21] = Mouse pharmacokinetics; format: in vivo; conditions: 10 mg/kg SC
# [22] = Dog pharmacokinetics; format: in vivo, beagle dog; conditions: 5 mg/kg PO
# [23] = positive control run with the compound of that line, 10 μM
compound,measurement,setting,value
CC(Cc1cc(F)ccc1F)Nc1cc[nH]c(=O)c1-c1nc2cc3c(cc2[nH]1)CNC3=O (centres unmarked) [Compound 53],F,[1]; 10 mg/kg P.O.,0.402%
same,AUC(0-t),"[1]; iv, 10 mg/kg I.V.",8850 ng·h/mL
same,AUC(0-t),"[1]; po, 10 mg/kg P.O.",35.5 ng·h/mL
same,half-life at 0.5 μM,[2],8.88 min
"2-(4-(1-(5-Fluoro-2-methylphenyl)propan-2-ylamino)-2-oxo-1,2-dihydropyridin-3-yl)-6-(2-(dimethylamino)ethyl)-6,7-dihydroimidazo[4,5-f]isoindole-5(1H)-one [Compound 45]",GI50,[3],> 1 µM
same,"reduced potency, C1156Y compared to NPM-ALK parent construct",[4],1.6 fold
same,IC50,[5],0.081 ± 0.0042 µM
same,"reduced potency, C1156Y compared to EML4-ALK parent construct",[6],1.3 fold
"CC(Cc1cc(F)ccc1F)Nc1cc[nH]c(=O)c1-c1nc2cc3c(cc2[nH]1)CN(C)C3=O (centres unmarked) [Compound 33, 2-(4-(1-(2,5-Difluorophenyl)propan-2-ylamino)-2-oxo-1,2-dihydropyridin-3-yl)-6-methyl-6,7-dihydroimidazo[4,5-f]isoindol-5(1H)-one]",Mouse LM-P1 Half-life,"[7]; Phase I only, 0.5 μM",0.901 h
same,half-life at 0.5 μM,"[7]; mouse, liver microsomes, pH 7.4, Phase I only, read-out: Mouse LM-P1 Half-life",0.214 h
same,Papp A to B,"[8]; Caco-2, 10 μM",1.7 10−6 cm/sec
same,Papp B to A,"[8]; Caco-2, 10 μM, basolateral pH 7.4, 2 h",1.4 10−6 cm/sec
same,Efflux Ratio,"[8]; Caco-2, B to A / A to B",0.5
"C[C@@H](Cc1c(F)c(F)cc(F)c1F)Nc1cc[nH]c(=O)c1-c1nc2cc3c(cc2[nH]1)C(=O)N(c1ccc(F)nc1)C3=O [Compound 15, (S)-6-(6-Fluoropyridin-3-yl)-2-(2-oxo-4-((1-(2,3,5,6-tetrafluorophenyl)propan-2-yl)amino)-1,2-dihydropyridin-3-yl)imidazo[4,5-f]isoindole-5,7(1H,6H)-dione]",IC50,[9],> 10 µM
same,IC50,[10],> 10 µM
same,"Papp A→B at 2 h, 10 μM",[11],< 0.2 ×10⁻⁶ cm/s
same,"Papp B→A at 2 h, 10 μM",[11],< 0.2 ×10⁻⁶ cm/s
"C[C@@H](Cc1cc(F)ccc1F)Nc1cc[nH]c(=O)c1-c1nc2cc3c(cc2[nH]1)C(=O)N(C)C3=O (stereo in doubt) [Compound 32, 2-(4-(1-(2,5-Difluorophenyl)propan-2-ylamino)-2-oxo-1,2-dihydropyridin-3-yl)-6-methylimidazo[4,5-f]isoindole-5,7(1H,6H)-dione]","Papp A→B at 2 h, 10 μM",[11],> 0.2 ×10⁻⁶ cm/s
same,microsomal CLint at 0.5 μM,[2],< 5 µL/min/mg
"CC(C)NCC(O)COc1cccc2ccccc12 (centres unmarked) [Propranolol, reference compound]","recovery at 2 h, 10 μM","[11]; Caco-2, Pos Ctrl: Propranolol Recovery, positive control run with the compound of that line, 10 μM",44%
same,"Papp at 2 h, 10 μM","[11]; Caco-2, positive control run with the compound of that line, 10 μM",14 ×10⁻⁶ cm/s
same,Pos Ctrl (Papp): Propranolol Papp,[8]; [23],13.7 and 14.3 and 11.8
same,Pos Ctrl: Propranolol Recovery,[8]; [23],63% and 26%
"C[C@@H](Cc1c(F)c(F)cc(F)c1F)Nc1cc[nH]c(=O)c1-c1nc2cc3c(cc2[nH]1)CN(C1CCN(C)CC1)C3=O [Compound 4, (S)-6-(1-Methylpiperidin-4-yl)-2-(2-oxo-4-(1-(2,3,5,6-tetrafluorophenyl)propan-2-ylamino)-1,2-dihydropyridin-3-yl)-6,7-dihydroimidazo[4,5-f]isoindol-5(3H)-one]",IC50,[12],0.257 µM
same,"Papp A→B at 2 h, 10 μM",[11],< 0.2 ×10⁻⁶ cm/s
same,"Papp B→A at 2 h, 10 μM",[11],20 ×10⁻⁶ cm/s
same,half-life at 0.5 μM,[13],> 2 h
same,microsomal CLint at 0.5 μM,[13],< 5.8 µL/min/mg
same,half-life at 0.5 μM,[14],> 2 h
same,microsomal CLint at 0.5 μM,[14],< 5.8 µL/min/mg
same,IC50,[15],2.72 µM
same,"reduced potency, C1156Y compared to EML4-ALK parent construct",[6],2.0 fold
same,IC50,[16],2.885 ± 0.02 µM
"CC(Cc1cc(F)ccc1F)Nc1cc[nH]c(=O)c1-c1nc2cc3c(cc2[nH]1)C(=O)N(CC(O)CO)C3=O [Compound 34, 2-(4-(1-(2,5-Difluorophenyl)propan-2-ylamino)-2-oxo-1,2-dihydropyridin-3-yl)-6-(R)-2,3-dihydroxypropyl)imidazo[4,5-f]isoindole-5,7(1H,6H)-dione]","Papp A→B at 2 h, 10 μM",[11],< 0.2 ×10⁻⁶ cm/s
same,Papp A to B,"[8]; Caco-2, 10 μM",>0.2 10−6 cm/sec
"C[C@@H](Cc1c(F)c(F)cc(F)c1F)Nc1cc[nH]c(=O)c1-c1nc2cc3c(cc2[nH]1)C(=O)N(c1cccnc1)C3O (stereo partly drawn) [Compound 13, 7-Hydroxy-2-(2-oxo-4-(((S)-1-(2,3,5,6-tetrafluorophenyl)propan-2-yl)amino)-1,2-dihydropyridin-3-yl)-6-(pyridin-3-yl)-6,7-dihydroimidazo[4,5-f]isoindol-5(1H)-one]",IC50,[17],0.0152 µM
same,IC50,[18],0.00636 µM
"(S)-6-(2-(Dimethylamino)ethyl)-2-(2-oxo-4-((1-(2,3,5,6-tetrafluorophenyl)propan-2-yl)amino)-1,2-dihydropyridin-3-yl)-6,7-dihydroimidazo[4,5-f]isoindol-5(3H)-one [Compound 1]",IC50,[19],1.6 µM
same,AUC0-1440,[1]; 10 mg/kg I.V.,329 µg·min/mL
same,CL,[1]; 10 mg/kg I.V.,25.5 mL/min/kg
same,MRT,[1]; 10 mg/kg I.V.,22.7 h
same,T1/2,[1]; 10 mg/kg I.V.,22.05 h
same,Vss,[1]; 10 mg/kg I.V.,23.9 L/kg
same,AUC0-1440,[1]; 10 mg/kg P.O.,0.943 µg·min/mL
same,Cmax,[1]; 10 mg/kg P.O.,2.21 ng/mL
same,F,[1]; 10 mg/kg P.O.,0.287%
same,Tmax,[1]; 10 mg/kg P.O.,1.88 h
same,F,[20],1%
same,F,[21],30%
same,Compound 1 (parameter cell as printed),[22],17.2 µg·min/mL
same,F,[22],12%
same,GI50,[3],> 3 µM
same,IC50,"[15]; read-out: hERG inhib. IC50, HEK293, hERG tail current",6.25 µM
